The values that follow come from ChEMBL document CHEMBL1201862, “PubChem BioAssay data set” (2004).

For one assay, the target named is Exodeoxyribonuclease V (Escherichia coli (strain K12), UniProt P04993+P07648+P08394). Nature of the assay: E. coli RecBCD inhibitors, dose response, counter-screen for AddAB inhibitor project, absorbance, V66 E. coli, mutant T4 phage (AID 492957). The assay is classed as functional, cell-based, Escherichia coli str. K-12 substr. MG1655. In general terms: The purpose of a counterscreen is to sort out artefacts and off-target activity.

Assay [1] can be described thus: cytotoxicity in HEK-293T cells, dose response, cytotoxicity control for TCR NF-kB inhibitor project, luminescence, T-cell screen hits (AID 489026).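 Note: cells exposed to compound about 14 hours before the viability readout.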 The assay is classed as functional, cell-based.
A short description of assay [2]: Counterscreen for AddAB inhibitors: absorbance-based bacterial cell-based high throughput dose response assay for inhibitors of bacterial viability. [Related pubchem assays (depositor defined):AID435030, AID449728, AID449731, AID488942, AID488955, AID488956]. It is filed as functional.
The subject of the next assay is INS1. Nature of the assay: beta cell apoptosis inhibitors, cytokine rescue, dose response, luminescence, retest (AID 449756).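 Note: cell death triggered by IL-1 beta plus TNF-alpha plus IFN-gamma mixture; protective hits raise ATP signal compared with cytokine alone wells.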 The assay is classed as functional, cell-based. The note with it: Rattus norvegicus.
Another assay has as its target Protein Wnt-3a (Mus musculus, UniProt P27467). Nature of the assay: Wnt3a-driven reporter signaling inhibition, dose response, selectivity assay for Gli-SUFU antagonist project, Wnt-LIGHT cells, luminescence (AID 651570).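 Note: Wnt-LIGHT reporter cells stimulated with conditioned medium from Wnt3a-producing cells.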 The assay is classed as functional. Particulars: read-out: IC50_Mean.
Assay [3] is described as follows: Luminescence Cell-Based Dose Confirmation HTS to Identify Activators of 5'UTR Stem-Loop Driven Alpha-Synuclein mRNA Translation in H4 Neuroglioblastoma Cells. [Related pubchem assays: 1829 (Project Summary), 1814 (Primary HTS)]. It is filed as functional.
Assay [4] can be described thus: Luminescence Cell-Based Dose Response HTS to Identify Activators of Luciferase Translation or Activity in H4 […] Cells. [Related pubchem assays: 1829 (Project Summary), 1814 (Primary HTS)]. The assay is classed as functional.
The subject of another assay is H4. Nature of the assay: Luminescence Cell-Based Dose Response HTS to Identify Activators of 5'UTR Stem-Loop Driven Prion Protein mRNA Translation in H4 Neuroglioblastoma Cells. [Related pubchem assays: 1829 (Project Summary), 1814 (Primary HTS)]. Particulars: Homo sapiens. The assay is classed as functional.
In assay [5] the target is Multidrug resistance protein CDR2 (Candida albicans (strain SC5314 / ATCC MYA-2876) (Yeast), UniProt P78595). Briefly: CaCDR2 efflux pump inhibitors in yeast, dose response, S. cerevisiae AD1-8u, singleplex, Cherry Pick2 set (AID 623994). The assay is classed as functional. Particulars: read-out: EC50_MICROM.
Assay [6] addresses T1, Replicative DNA helicase DnaB (Mycobacterium tuberculosis, UniProt P9WMR3).
T1 sequence (P9WMR3 whole entry): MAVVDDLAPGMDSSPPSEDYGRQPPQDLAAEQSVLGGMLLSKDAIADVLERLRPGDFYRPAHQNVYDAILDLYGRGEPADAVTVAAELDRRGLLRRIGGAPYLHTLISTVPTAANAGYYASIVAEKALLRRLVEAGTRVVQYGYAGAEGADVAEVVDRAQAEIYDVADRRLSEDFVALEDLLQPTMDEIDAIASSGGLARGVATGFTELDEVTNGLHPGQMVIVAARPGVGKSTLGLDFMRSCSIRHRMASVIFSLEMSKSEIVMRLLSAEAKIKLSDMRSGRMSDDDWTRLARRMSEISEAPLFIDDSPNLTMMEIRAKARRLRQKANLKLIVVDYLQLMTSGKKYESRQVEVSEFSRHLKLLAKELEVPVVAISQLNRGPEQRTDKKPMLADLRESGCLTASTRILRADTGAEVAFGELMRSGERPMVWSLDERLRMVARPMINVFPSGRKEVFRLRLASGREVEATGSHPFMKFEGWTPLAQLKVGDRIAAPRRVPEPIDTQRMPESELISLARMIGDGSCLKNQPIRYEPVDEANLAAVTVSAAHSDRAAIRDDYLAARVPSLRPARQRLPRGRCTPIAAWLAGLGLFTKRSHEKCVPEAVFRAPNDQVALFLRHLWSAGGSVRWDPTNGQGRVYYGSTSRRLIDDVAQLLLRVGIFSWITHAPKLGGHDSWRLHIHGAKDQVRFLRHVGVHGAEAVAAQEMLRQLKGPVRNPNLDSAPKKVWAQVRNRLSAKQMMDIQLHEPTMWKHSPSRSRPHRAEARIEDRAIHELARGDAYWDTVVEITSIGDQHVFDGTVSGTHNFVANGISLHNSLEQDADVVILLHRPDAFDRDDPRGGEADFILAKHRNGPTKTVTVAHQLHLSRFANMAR
Nature of the assay: DnaB intein splicing inhibitors, dose response, biochemical, cell-free fluorescence (AID 449749). It is filed as functional.

The next assay has as its target T2, Protein RecA (Mycobacterium tuberculosis, UniProt P9WHJ3).
T2 sequence (P9WHJ3 whole entry): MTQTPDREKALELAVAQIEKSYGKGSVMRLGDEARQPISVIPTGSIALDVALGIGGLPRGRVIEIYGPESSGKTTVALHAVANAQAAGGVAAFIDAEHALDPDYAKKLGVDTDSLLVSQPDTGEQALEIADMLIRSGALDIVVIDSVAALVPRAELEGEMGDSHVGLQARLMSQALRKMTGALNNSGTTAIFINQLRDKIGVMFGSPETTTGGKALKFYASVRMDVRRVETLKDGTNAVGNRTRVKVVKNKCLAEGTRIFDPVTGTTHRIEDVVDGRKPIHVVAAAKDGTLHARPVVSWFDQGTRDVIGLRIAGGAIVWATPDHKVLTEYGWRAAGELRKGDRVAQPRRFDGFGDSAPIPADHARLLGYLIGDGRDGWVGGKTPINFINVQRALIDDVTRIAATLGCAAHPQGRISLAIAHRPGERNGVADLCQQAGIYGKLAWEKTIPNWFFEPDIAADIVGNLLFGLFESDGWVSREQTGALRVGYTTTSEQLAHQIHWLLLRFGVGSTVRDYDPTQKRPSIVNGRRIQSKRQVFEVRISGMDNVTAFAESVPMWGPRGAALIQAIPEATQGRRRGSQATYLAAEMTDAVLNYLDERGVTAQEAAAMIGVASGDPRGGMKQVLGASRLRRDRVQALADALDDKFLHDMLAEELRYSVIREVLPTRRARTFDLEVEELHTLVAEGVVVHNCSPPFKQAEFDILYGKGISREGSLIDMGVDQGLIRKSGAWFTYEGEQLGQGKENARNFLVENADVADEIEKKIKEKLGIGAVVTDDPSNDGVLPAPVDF
Briefly: Fluorescence Cell-Free Homogeneous Dose Retest to Identify Inhibitors of RecA-Intein Splicing Activity. [Related pubchem assays (depositor defined):AID2097, AID2223, AID489010, AID492950]. It is filed as functional.

Assay [7] concerns the target Mitochondrial peptide methionine sulfoxide reductase (Bos taurus, UniProt P54149). It is filed as functional.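 Note: absorbance read-out, biochemical high-throughput dose-response screen for MsrA inhibitors, confirmatory; recombinant bovine MsrA coupled to E. coli TrxB with NADPH and selenocystamine; potency is for inhibitors of MsrA activity on DMSO substrate.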
For a further assay, the target named is Melanocortin receptor 4 (Homo sapiens, UniProt P32245). Briefly: MC4R antagonist potency on cAMP, dose response, cell-based, TR-FRET, biased antagonists (AID 602298).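 Note: antagonist potency against agonist-stimulated cAMP production.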 It is filed as functional.
Assay [8] can be described thus: nonselective inhibitors of cellular cAMP signaling, dose response, counter-screen for MC4R biased antagonist project, cell-based, TR-FRET cAMP detection (AID 602305).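 Note: U2OS cells stimulated with forskolin near its EC80 as the cAMP inducer; potency is for inhibition of forskolin-stimulated cAMP signaling.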 The assay is classed as functional.
For assay [9], the target named is T3, Apoptotic protease-activating factor 1 (Homo sapiens, UniProt O14727).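 Note: caspase-3 cleavage of fluorogenic Rh110 DEVD substrate downstream of apoptosome activation.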
T3 sequence (O14727 whole entry): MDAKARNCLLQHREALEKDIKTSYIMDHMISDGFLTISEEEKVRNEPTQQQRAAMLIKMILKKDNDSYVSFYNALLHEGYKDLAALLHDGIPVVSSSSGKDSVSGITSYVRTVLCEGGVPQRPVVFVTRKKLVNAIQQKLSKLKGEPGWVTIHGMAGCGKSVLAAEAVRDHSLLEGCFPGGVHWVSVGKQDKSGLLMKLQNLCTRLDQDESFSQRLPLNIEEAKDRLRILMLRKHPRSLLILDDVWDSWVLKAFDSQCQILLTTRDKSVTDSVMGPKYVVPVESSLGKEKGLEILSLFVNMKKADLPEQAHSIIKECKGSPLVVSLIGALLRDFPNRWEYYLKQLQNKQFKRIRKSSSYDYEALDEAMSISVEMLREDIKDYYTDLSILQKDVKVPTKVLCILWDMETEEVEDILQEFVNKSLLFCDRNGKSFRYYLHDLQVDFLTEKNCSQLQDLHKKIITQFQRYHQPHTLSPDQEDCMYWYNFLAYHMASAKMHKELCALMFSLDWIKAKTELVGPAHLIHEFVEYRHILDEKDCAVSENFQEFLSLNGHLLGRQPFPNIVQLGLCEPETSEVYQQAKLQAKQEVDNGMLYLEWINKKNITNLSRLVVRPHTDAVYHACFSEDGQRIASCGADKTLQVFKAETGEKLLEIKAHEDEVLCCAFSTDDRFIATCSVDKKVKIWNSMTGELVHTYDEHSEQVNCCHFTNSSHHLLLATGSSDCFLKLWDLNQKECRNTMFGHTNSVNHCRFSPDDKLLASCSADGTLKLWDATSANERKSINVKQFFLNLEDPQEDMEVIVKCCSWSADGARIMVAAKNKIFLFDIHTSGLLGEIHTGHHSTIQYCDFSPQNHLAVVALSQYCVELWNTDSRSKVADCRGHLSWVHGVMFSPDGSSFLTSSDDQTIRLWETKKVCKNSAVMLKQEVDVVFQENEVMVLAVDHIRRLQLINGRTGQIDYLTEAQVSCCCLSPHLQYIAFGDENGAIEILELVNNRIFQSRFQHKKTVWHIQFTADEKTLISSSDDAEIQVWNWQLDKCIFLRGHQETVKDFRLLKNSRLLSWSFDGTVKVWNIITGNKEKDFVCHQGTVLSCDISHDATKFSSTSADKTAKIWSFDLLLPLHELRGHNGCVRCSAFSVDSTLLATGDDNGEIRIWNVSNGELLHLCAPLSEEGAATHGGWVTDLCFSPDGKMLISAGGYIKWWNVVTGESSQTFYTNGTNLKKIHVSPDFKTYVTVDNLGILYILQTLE
Nature of the assay: SAR analysis of small molecule Activators of Apaf-1 in a Fluorescent assay. It is filed as functional. The note with it: read-out: EC50_Mean.

Assay [10] can be described thus: Luminescence Cell-Based Dose Retest to Confirm Inhibitors of Cancer Stem Cells. [Related pubchem assays (depositor defined):AID2717, AID2721]. Particulars: Homo sapiens. It is filed as functional.
For the next assay, the system named is Vero. Briefly: cells. The assay is classed as functional. Particulars: Chlorocebus sabaeus.
Assay [11] addresses Hepatocyte nuclear factor 4-alpha (Homo sapiens, UniProt P41235). It is filed as functional, cell-based.
The target in assay [12] is Induced myeloid leukemia cell differentiation protein Mcl-1 (Homo sapiens, UniProt Q07820). Nature of the assay: MCL1-BIM BH3 interaction inhibitors, dose response, biochemical, fluorescence polarization, BIM-BH3 peptide, 1536-well (AID 2217). (In general: In fluorescence polarisation assays a small probe gives low polarisation when free and higher when bound to something large.)

In a further assay the target is Bcl-2-like protein 1 (Homo sapiens, UniProt Q07817). Nature of the assay: BCL-XL inhibitors, dose response, selectivity assay for MCL1 inhibitor project, biochemical, fluorescence polarization, 1536-well (AID 2218).
For assay [13], the target named is DNA (cytosine-5)-methyltransferase 1 (Homo sapiens, UniProt P26358). Briefly: DNMT1 methyltransferase inhibitors, confirmation, biochemical, fluorescent molecular beacon (AID 602386). The assay is classed as functional.
The target in assay [14] is T4, Small ubiquitin-related modifier 1 (Homo sapiens, UniProt P63165). Briefly: inhibitors of SUMO1 peptide binding, dose response, biochemical, fluorescence polarization, uHTS hits (AID 624382). The assay is classed as functional. Particulars: read-out: IC50_Mean.
Assay [15] concerns the target T4, Small ubiquitin-related modifier 1. Nature of the assay: inhibitors of SUMO1 partner interactions, dose response, biochemical, FRET (AID 624383). It is filed as functional. Particulars: read-out: IC50_Mean.
Another assay deals with Beta Lactamase (Pseudomonas aeruginosa, UniProt Q932Y6).
The target in assay [16] is Beta-lactamase (Pseudomonas aeruginosa, UniProt Q79MP6).
Assay [17] concerns the target Beta-lactamase (Salmonella choleraesuis (strain SC-B67), UniProt Q5J463).

In general, AC50 refers to the concentration giving half of the maximal activity seen. Usually CC50 stands for the concentration giving 50% cytotoxicity.

Structures are written as SMILES. The source made the active and inactive calls.

T4 sequence (P63165 whole entry): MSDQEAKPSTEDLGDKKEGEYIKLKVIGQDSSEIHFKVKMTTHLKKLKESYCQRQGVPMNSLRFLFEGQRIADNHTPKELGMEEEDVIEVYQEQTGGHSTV
Chain of DNA (cytosine-5)-methyltransferase 1 (P26358 whole entry): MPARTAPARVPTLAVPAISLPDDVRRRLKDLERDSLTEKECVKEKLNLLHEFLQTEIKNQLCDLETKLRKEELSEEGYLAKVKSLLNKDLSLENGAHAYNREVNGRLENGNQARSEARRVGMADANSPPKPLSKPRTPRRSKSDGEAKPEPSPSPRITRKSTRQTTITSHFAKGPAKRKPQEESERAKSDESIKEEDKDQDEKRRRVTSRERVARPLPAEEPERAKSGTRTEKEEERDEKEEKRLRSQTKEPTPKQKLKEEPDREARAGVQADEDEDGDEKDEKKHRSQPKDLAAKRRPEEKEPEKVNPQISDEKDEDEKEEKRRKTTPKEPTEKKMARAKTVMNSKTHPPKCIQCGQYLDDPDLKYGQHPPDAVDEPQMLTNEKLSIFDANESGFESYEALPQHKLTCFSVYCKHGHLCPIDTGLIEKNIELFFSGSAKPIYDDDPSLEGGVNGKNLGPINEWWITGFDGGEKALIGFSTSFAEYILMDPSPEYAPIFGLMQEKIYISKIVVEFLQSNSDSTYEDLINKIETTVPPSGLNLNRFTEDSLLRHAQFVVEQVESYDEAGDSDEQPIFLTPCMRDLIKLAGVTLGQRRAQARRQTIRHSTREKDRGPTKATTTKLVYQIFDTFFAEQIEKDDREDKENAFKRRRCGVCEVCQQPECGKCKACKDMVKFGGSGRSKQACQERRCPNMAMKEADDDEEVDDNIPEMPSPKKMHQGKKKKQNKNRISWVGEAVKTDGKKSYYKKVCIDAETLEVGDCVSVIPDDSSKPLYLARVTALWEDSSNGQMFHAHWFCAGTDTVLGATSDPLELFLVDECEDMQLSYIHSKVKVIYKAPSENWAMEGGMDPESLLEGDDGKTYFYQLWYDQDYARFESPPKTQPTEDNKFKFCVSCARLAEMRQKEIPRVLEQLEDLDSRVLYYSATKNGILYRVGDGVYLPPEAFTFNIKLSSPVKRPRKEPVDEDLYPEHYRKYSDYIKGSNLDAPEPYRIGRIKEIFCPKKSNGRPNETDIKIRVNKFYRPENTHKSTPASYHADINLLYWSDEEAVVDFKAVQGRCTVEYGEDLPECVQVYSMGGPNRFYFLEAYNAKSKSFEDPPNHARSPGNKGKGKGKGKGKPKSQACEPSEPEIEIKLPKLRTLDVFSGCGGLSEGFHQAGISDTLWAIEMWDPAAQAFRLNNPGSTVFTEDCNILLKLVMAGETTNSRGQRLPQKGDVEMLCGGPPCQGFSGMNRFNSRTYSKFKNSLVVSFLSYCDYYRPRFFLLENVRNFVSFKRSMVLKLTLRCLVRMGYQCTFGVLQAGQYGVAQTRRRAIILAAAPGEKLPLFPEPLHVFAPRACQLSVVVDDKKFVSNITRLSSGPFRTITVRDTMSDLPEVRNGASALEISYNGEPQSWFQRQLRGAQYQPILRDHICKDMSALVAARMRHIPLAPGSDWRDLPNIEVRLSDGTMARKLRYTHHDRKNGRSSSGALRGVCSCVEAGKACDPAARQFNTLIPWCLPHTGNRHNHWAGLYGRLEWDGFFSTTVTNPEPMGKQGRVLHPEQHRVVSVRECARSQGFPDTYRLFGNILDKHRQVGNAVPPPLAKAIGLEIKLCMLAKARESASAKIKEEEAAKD
Chain of Induced myeloid leukemia cell differentiation protein Mcl-1 (Q07820 whole entry): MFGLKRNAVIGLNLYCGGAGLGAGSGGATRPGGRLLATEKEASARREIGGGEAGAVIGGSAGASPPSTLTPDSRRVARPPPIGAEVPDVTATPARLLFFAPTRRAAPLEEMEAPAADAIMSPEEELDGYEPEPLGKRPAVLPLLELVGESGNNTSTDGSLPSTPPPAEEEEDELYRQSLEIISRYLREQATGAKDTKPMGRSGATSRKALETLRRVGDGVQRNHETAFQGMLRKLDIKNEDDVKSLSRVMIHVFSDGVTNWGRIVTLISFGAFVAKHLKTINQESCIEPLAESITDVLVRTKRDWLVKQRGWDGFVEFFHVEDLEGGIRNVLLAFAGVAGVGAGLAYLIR
Chain of Multidrug resistance protein CDR2 (P78595 whole entry): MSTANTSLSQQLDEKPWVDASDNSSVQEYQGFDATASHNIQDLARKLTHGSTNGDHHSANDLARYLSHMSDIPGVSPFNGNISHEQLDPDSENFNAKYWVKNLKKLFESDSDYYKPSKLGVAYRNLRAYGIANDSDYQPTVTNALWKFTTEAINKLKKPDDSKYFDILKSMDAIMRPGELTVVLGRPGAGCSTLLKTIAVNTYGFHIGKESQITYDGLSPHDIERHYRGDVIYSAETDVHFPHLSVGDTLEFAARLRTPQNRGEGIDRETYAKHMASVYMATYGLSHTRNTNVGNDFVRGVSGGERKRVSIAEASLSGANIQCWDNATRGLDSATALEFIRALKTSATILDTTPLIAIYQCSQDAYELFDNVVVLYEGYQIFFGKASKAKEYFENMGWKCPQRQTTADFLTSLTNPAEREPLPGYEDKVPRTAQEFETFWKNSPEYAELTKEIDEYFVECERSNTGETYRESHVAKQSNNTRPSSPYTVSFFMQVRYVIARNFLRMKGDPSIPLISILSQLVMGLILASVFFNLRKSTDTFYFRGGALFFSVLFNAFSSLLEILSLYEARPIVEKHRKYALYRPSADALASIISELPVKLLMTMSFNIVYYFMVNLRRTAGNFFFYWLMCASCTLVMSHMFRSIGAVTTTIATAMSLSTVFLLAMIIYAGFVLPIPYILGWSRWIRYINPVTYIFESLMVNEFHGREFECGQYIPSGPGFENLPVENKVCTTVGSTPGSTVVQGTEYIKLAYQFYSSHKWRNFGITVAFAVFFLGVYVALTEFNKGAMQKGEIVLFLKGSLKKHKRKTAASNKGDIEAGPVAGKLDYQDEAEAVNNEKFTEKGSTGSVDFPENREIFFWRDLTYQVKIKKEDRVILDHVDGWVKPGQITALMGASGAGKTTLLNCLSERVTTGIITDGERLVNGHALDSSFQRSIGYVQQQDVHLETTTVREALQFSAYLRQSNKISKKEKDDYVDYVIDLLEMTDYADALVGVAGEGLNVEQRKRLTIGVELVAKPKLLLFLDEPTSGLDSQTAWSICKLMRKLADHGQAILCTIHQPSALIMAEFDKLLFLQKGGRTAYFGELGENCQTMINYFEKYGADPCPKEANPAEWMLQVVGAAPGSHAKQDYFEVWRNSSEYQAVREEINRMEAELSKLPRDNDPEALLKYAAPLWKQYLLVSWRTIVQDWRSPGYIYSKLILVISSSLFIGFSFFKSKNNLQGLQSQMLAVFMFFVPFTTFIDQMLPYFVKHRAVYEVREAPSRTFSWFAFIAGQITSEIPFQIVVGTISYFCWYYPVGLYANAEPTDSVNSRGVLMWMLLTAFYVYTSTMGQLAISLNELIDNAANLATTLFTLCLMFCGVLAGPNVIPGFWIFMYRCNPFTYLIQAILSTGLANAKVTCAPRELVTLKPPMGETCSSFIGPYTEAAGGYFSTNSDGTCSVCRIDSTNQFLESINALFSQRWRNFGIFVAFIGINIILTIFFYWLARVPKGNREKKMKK
Chain of Hepatocyte nuclear factor 4-alpha (P41235 whole entry): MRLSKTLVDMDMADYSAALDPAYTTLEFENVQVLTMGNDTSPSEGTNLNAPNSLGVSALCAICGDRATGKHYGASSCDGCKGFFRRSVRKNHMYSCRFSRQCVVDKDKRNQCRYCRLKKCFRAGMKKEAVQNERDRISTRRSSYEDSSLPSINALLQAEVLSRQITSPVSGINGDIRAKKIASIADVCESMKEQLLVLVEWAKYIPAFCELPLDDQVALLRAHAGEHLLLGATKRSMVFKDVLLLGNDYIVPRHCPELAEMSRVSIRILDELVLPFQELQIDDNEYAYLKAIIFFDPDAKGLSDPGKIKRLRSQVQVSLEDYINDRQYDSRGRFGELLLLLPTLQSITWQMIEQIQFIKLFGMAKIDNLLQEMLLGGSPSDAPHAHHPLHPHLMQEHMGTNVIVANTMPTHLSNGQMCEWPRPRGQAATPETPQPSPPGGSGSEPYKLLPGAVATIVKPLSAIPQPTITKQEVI
Chain of Beta Lactamase (Q932Y6 whole entry): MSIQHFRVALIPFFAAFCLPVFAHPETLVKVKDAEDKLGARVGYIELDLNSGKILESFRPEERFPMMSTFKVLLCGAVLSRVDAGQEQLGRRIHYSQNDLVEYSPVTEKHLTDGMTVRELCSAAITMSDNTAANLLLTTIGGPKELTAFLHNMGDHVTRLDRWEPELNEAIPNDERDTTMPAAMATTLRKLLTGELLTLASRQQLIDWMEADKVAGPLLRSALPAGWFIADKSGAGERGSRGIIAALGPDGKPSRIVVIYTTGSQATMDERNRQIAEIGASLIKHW
Chain of Bcl-2-like protein 1 (Q07817 whole entry): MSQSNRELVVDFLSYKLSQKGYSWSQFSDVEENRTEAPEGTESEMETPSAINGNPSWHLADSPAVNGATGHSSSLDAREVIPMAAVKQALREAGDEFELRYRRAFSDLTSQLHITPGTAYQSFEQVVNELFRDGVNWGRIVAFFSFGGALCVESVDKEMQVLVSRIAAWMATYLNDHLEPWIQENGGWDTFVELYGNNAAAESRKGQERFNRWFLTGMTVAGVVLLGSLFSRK
Chain of Beta-lactamase (Pseudomonas aeruginosa, UniProt Q79MP6) (Q79MP6 whole entry): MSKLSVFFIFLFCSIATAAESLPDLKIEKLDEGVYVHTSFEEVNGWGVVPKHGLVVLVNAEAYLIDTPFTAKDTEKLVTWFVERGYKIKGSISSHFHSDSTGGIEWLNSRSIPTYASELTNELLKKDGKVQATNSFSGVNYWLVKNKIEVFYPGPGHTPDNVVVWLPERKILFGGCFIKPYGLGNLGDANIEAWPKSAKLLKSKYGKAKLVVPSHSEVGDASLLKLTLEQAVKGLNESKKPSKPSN

`CCOC(=O)c1ccc(NC(=O)Cn2cnc3cc(C)c(C)cc32)cc1`: the IC50 is > 119 µM (inactive) at Exodeoxyribonuclease V, > 80 µM (inactive) in assay [1], > 119 µM (inactive) in assay [2] and 0.931 µM (active) on Protein Wnt-3a. Moreover, the AC50 with INS1 was 4.42 µM (active).

For `O=C(Nc1ccccc1)C1=C[C@H](c2ccccc2)C[C@H](OCCCCO)O1`, the EC50 is 11.6 µM (active) in assay [3], 9.7 µM (active) in assay [4], 22 µM (active) in the assay on H4 and 27.7 µM (active) in [5].

`CS/C(=C/[N+](=O)[O-])Nc1cccc2c1C(C)CC2(C)C` (stereo unspecified): the half-maximal activity concentration (AC50) in [6] is 17.5 µM (active). Further, on Protein RecA, the EC50 was 5.21 µM (active). In addition, in assay [7], the IC50 was 44.8 µM (inactive).

As to `CN(c1ccc(OCC(=O)OCC(=O)Nc2ccc(Br)cc2)cc1)S(=O)(=O)c1cccs1`, the IC50 (on Melanocortin receptor 4; in assay [8]) was > 64.6 µM (inactive) throughout.

On to `Cc1nn(Cc2ccccc2)c(C)c1CCC(=O)O`, for which the EC50 in [9] is > 100 µM (inactive).

Regarding `Cc1ccc(/C=C/C(=O)c2cc(Br)ccc2OC(=O)c2ccco2)cc1`, in assay [10], the AC50 was 4.76 µM (active). Besides, in the assay with Vero, the CC50 was 24.4 µM (active). For the same molecule, the IC50 in assay [11] was 1.96 µM (active).

Regarding `CCOc1ccc(NC(=O)c2cccc(-n3cccc3)c2)cc1S(=O)(=O)N1CCOCC1`, the IC50 is > 4.03 µM (active) in assay [12]; > 109 µM (not active) against Bcl-2-like protein 1; 9.08 µM (active) in assay [13]; > 66.6 µM (inactive) in assay [14]; 3.29 µM (active) in assay [15].

Take `C/C(=N\O)c1ccc2c3c([nH]c2c1)CCCC3`: the IC50 on Beta Lactamase, on Beta-lactamase [16] and at Beta-lactamase [17] was > 59.6 µM (inactive) in each case.
